The values below come from EP1283052A1, “Pharmaceutical composition containing caspase-8 and /or caspase-9 useful for overcoming glucocorticoid- and cancer therapy-induced apoptosis of tumours” (Deutsches Krebsforschungszentrum Stiftung des öffentlichen …, priority 2001, dated 2003).

Assay [1] has as its system P5 and HeLa cervix carcinoma cells. The assay is described as follows: Apoptosis by annexin-V/FITC staining and flow cytometry in cervix carcinoma cells. The format is cell-based, human. The settings on record: cisplatin 2 µg/ml, absence of DEX, 24-72 h; Fig. 1b. On the procedure:
• (a) Human epidermoid lung cancer cells (P693) were injected into nude mice. At a tumour volume of 500 mm^3 weekly treatment with cisplatin (5mg/kg/week) was started. Cisplatin was injected intraperitoneally in the absence (CIS) or presence (DEX/CIS) of DEX which was added to the drinking water (0.28 mg/L) for the duration of the experiment. […] As controls, tumor growth of xenografts from mice which received neither cisplatin nor DEX (CO) or from mice which received DEX only (DEX) was determined. The tumour volume in each animal was measured at weekly intervals for a period of 5 weeks. Data are presented as the means +/- SD of 6 to 8 animals. • (b) The human cervical carcinoma cell lines HeLa and P5 were γ-irradiated (10 Gy) or treated with cisplatin (2 µg/ml) in the absence (white bars) or presence (black bars) of DEX (1 µM). The percentage of apoptosis was measured in untreated (CO) and stimulated cells by annexin-staining and FACS-analysis at the time points indicated. (c) P5, P693 and human leukemic T cells (CEM) cells were treated with cisplatin (2 µg/ml) in the absence or presence of DEX as indicated. 24 and 48 h following treatment cells were lysed and caspase-3 activity was determined by a fluorescent caspase-3 assay and spectroscopy.
(In flow cytometry, cells or beads pass a laser one at a time.)

A further assay has as its system caspase-9. The assay is described as follows: RT-PCR for caspase-9 mRNA expression in P5 cells. The settings on record: cisplatin 2 µg/ml, 6 and 24 h, Fig. 4a. The format is cell-based, human. On the procedure: P5 cells either untreated (CO) or stimulated with cisplatin (CIS, 2 µg/ml) were incubated in the absence or presence of DEX (1 µM). • (a) 6 and 24 h later RNA was extracted and assayed by RT-PCR for expression of caspase-9. Expression of the GAPDH gene served as control for equal conditions. • (b) 24 h after stimulation expression of caspase-9 proteins was examined by immunofluorescence staining using a rabbit polyclonal caspase-9 antibody and a FITC-coupled secondary antibody. Staining with the secondary antibody alone served as control for unspecific binding. • (c) 48 and 72 h after treatment whole cell proteins were extracted and analysed for expression of caspase-9 and caspase-3. The protein sizes in kDa are indicated on the right. […]
• (A) Cell culture. […] The mice were given 0.28 mg/L DEX in drinking water, and the amount of water consumed was monitored. […] The tumour volumes were measured using callipers, and calculated using, as an approximation, the formula for volume of a hemi-ellipsoid: π(width^2 x length)/6. […] Early apoptotic changes were identified by staining of cells with fluoresceinthiocyanate (FITC)-conjugated annexin V and propidium iodide (Becton Dickinson, Heidelberg, Germany) and analysed by flow cytometry (FACScan, Becton Dickinson) as described (Herr et al., EMBO J. 16 (1997), 6200-6208) • (E) Immunohistochemistry. […]

Regarding `N.N.[Cl][Pt][Cl]` [cisplatin], the apoptosis entry in assay [1] is “detectable 24 h following treatment and increased during the next 48 and 72 h”. Besides, the “caspase-9 mRNA expression” value in the assay on caspase-9 is on record as “strongly enhanced”.
